In US12377112B2, “Methods of treating neurocognitive disorders, chronic pain and reducing inflammation” (priority 2019, dated 2025):

Assays:
healthy subjects = assay: Phase 1 study: Social Cognition Panel (PET, RMET, SSR, SVO, TEQ); assay type: in vivo, human
From the text: In some embodiments, Social Cognition Panel scales are utilized to evaluate the safety and/or efficacy of psilocybin. The social cognition panel scales comprise the pictorial empathy test (PET), reading the mind in the eyes test (RMET), social value orientation (SVO) test, the Toronto Empathy Questionnaire (TEQ), and the scale of social responsibility (SSR).
In some embodiments, the Pictorial Empathy Test (PET) is utilized to evaluate the effect of psilocybin on affective empathy.
In some embodiments, Reading the Mind in the Eyes Test (RMET) is utilized to evaluate the safety and/or efficacy of psilocybin. The RMET has 36 items, in which subjects are presented with a photograph of the eyes region of the face and must choose 1 of 4 adjectives or phrases to describe the mental state of the person pictured. A definition handout is provided at the beginning of the task and a practice item precedes the first trial.
In some embodiments, the Social Value Orientation (SVO) test is utilized to evaluate the safety and/or efficacy of psilocybin. The SVO Slider Measure has 6 primary items with 9 secondary (and optional) items. All of the items have the same general form. Each item is a resource allocation choice over a well-defined continuum of joint payoffs.
In some embodiments, the Toronto Empathy Questionnaire (TEQ) is utilized to evaluate the safety and/or efficacy of psilocybin. The TEQ represents empathy as a primarily emotional process. […] The TEQ is a brief, reliable and valid instrument for the assessment of empathy. In some embodiments, after treating according to the methods of the disclosure, a subject's TEQ score increases by about 5%, about 10%, about 15%, about 20%, about 25%, about 30%, about 35%, about 40%, about 45%, about 50%, about 55%, about 60%, about 65%, about 70%, about 75%, about 80%, about 85%, about 90%, about 95%, or about 100%, about 110%, about 120%, about 130%, about 140%, about 150%, about 160%, about 170%, about 180%, about 190%, about 200%, about 210%, about 220%, about 230%, about 240%, about 250%, about 260%, about 270%, about 280%, about 290%, or about 300%, or more, compared to prior to treatment.
In some embodiments, the Scale of Social Responsibility (SSR) is utilized to evaluate the safety and/or efficacy of psilocybin. The SSR measures perceptions regarding the importance of ethics and social responsibility.
The Pictorial Empathy Test (PET), Reading the Mind in the Eyes Test (RMET), Scale of Social Responsibility (SSR), Social Value Orientation (SVO), and Toronto Empathy Questionnaire (TEQ) were performed. Table 28 summarizes the results of the mixed model for repeated measures (MMRM) analysis for each of the aforementioned social cognition panel scales measured on Day 7 and Day 84 after study drug administration.

mice = assay: Haloperidol-induced catalepsy model; assay type: in vivo, mouse; conditions: for Haloperidol-induced catalepsy (significantly reduced): FIG. 17 (24 hours after administration)
Protocol: The potential anti-akinetic effect of psilocybin in mice was investigated. Psilocybin (1 mg/kg, 3 mg/kg, or 10 mg/kg), chlorstyril caffeine (CSC), or vehicle was administered one hour, 24 hours, or one week prior to administration of haloperidol.
After administration of haloperidol, a catalepsy test was administered to each mouse. During the test, the forelimbs of the mice were placed on a catalepsy apparatus. The latency time was defined as the time necessary for the mouse to put the forelimbs on the table. The cut off time was set as 3 minutes. Catalepsy was evaluated every 45 minutes for 270 minutes after the Haloperidol injection.

For `CN(C)CCc1c[nH]c2cccc(OP(=O)(O)O)c12` [Psilocybin, psilocybin], the “PET change from baseline, LS mean difference Psilocybin 10 mg-Placebo” value (healthy subjects; Day 7) was −0.1, the “PET change from baseline, LS mean difference Psilocybin 25mg-10mg” value (healthy subjects; Day 7) was 0.3 and the “PET change from baseline, LS mean difference Psilocybin 25 mg-Placebo” value (healthy subjects; Day 7) was 0.2. The “RMET change from baseline, LS mean difference Psilocybin 10 mg-Placebo” value (healthy subjects; Day 7) was 0.1, the “RMET change from baseline, LS mean difference Psilocybin 25mg-10mg” value (healthy subjects; Day 7) was 0.0 and the “RMET change from baseline, LS mean difference Psilocybin 25 mg-Placebo” value (healthy subjects; Day 7) was 0.2. The “SSR compliance social rules change from baseline, LS mean difference Psilocybin 10 mg-Placebo” value (healthy subjects; Day 7) was 0.0, the “SSR compliance social rules change from baseline, LS mean difference Psilocybin 25mg-10mg” value (healthy subjects; Day 7) was 0.1 and the “SSR compliance social rules change from baseline, LS mean difference Psilocybin 25 mg-Placebo” value (healthy subjects; Day 7) was 0.1. For the same molecule, the “SSR fulfilling expectations change from baseline, LS mean difference Psilocybin 10 mg-Placebo” value (healthy subjects; Day 7) was 0.1, the “SSR fulfilling expectations change from baseline, LS mean difference Psilocybin 25mg-10mg” value (healthy subjects; Day 7) was 0.1 and the “SSR fulfilling expectations change from baseline, LS mean difference Psilocybin 25 mg-Placebo” value (healthy subjects; Day 7) was 0.2. The “SSR global change from baseline, LS mean difference Psilocybin 10 mg-Placebo” value (healthy subjects; Day 7) was 1.2, the “SSR global change from baseline, LS mean difference Psilocybin 25mg-10mg” value (healthy subjects; Day 7) was 1.6 and the “SSR global change from baseline, LS mean difference Psilocybin 25 mg-Placebo” value (healthy subjects; Day 7) was 2.8. The “SVO angle change from baseline, LS mean difference Psilocybin 10 mg-Placebo” value (healthy subjects; Day 7) was 3.4, the “SVO angle change from baseline, LS mean difference Psilocybin 25mg-10mg” value (healthy subjects; Day 7) was −1.3 and the “SVO angle change from baseline, LS mean difference Psilocybin 25 mg-Placebo” value (healthy subjects; Day 7) was 2.1. The “SVO type change from baseline, LS mean difference Psilocybin 10 mg-Placebo” value (healthy subjects; Day 7) was 0.1, the “SVO type change from baseline, LS mean difference Psilocybin 25mg-10mg” value (healthy subjects; Day 7) was −0.0 and the “SVO type change from baseline, LS mean difference Psilocybin 25 mg-Placebo” value (healthy subjects; Day 7) was 0.1. The “TEQ change from baseline, LS mean difference Psilocybin 10 mg-Placebo” value (healthy subjects; Day 7) was 0.1, the “TEQ change from baseline, LS mean difference Psilocybin 25mg-10mg” value (healthy subjects; Day 7) was 0.1 and the “TEQ change from baseline, LS mean difference Psilocybin 25 mg-Placebo” value (healthy subjects; Day 7) was 0.2. For the same molecule, the “PET change from baseline, LS mean difference Psilocybin 10 mg-Placebo” value (healthy subjects; Day 84) was −0.1, the “PET change from baseline, LS mean difference Psilocybin 25mg-10mg” value (healthy subjects; Day 84) was 0.3 and the “PET change from baseline, LS mean difference Psilocybin 25 mg-Placebo” value (healthy subjects; Day 84) was 0.1. For the same molecule, the “RMET change from baseline, LS mean difference Psilocybin 10 mg-Placebo” value (healthy subjects; Day 84) was 0.2, the “RMET change from baseline, LS mean difference Psilocybin 25mg-10mg” value (healthy subjects; Day 84) was 0.3 and the “RMET change from baseline, LS mean difference Psilocybin 25 mg-Placebo” value (healthy subjects; Day 84) was 0.5. For the same molecule, the “SSR compliance social rules change from baseline, LS mean difference Psilocybin 10 mg-Placebo” value (healthy subjects; Day 84) was −0.0, the “SSR compliance social rules change from baseline, LS mean difference Psilocybin 25mg-10mg” value (healthy subjects; Day 84) was 0.1 and the “SSR compliance social rules change from baseline, LS mean difference Psilocybin 25 mg-Placebo” value (healthy subjects; Day 84) was 0.1. For the same molecule, the “SSR fulfilling expectations change from baseline, LS mean difference Psilocybin 10 mg-Placebo” value (healthy subjects; Day 84) was −0.1, the “SSR fulfilling expectations change from baseline, LS mean difference Psilocybin 25mg-10mg” value (healthy subjects; Day 84) was 0.2 and the “SSR fulfilling expectations change from baseline, LS mean difference Psilocybin 25 mg-Placebo” value (healthy subjects; Day 84) was 0.0. The “SSR global change from baseline, LS mean difference Psilocybin 10 mg-Placebo” value (healthy subjects; Day 84) was 0.3, the “SSR global change from baseline, LS mean difference Psilocybin 25mg-10mg” value (healthy subjects; Day 84) was 1.8 and the “SSR global change from baseline, LS mean difference Psilocybin 25 mg-Placebo” value (healthy subjects; Day 84) was 2.2. For the same molecule, the “SVO angle change from baseline, LS mean difference Psilocybin 10 mg-Placebo” value (healthy subjects; Day 84) was 3.4, the “SVO angle change from baseline, LS mean difference Psilocybin 25mg-10mg” value (healthy subjects; Day 84) was −1.0 and the “SVO angle change from baseline, LS mean difference Psilocybin 25 mg-Placebo” value (healthy subjects; Day 84) was 2.4. The “SVO type change from baseline, LS mean difference Psilocybin 10 mg-Placebo” value (healthy subjects; Day 84) was 0.1, the “SVO type change from baseline, LS mean difference Psilocybin 25mg-10mg” value (healthy subjects; Day 84) was −0.0 and the “SVO type change from baseline, LS mean difference Psilocybin 25 mg-Placebo” value (healthy subjects; Day 84) was 0.1. For the same molecule, the “TEQ change from baseline, LS mean difference Psilocybin 10 mg-Placebo” value (healthy subjects; Day 84) was 0.1, the “TEQ change from baseline, LS mean difference Psilocybin 25mg-10mg” value (healthy subjects; Day 84) was 0.0 and the “TEQ change from baseline, LS mean difference Psilocybin 25 mg-Placebo” value (healthy subjects; Day 84) was 0.1. The “SSR fulfilling expectations change from baseline, LS mean” value (healthy subjects; Psilocybin 10 mg, Day 7) was −0.1, the “SSR fulfilling expectations change from baseline, LS mean” value (healthy subjects; Psilocybin 10 mg, Day 84) was −0.2 and the “TEQ change from baseline, LS mean” value (healthy subjects; Psilocybin 10 mg, Day 84) was −0.1. The “SSR fulfilling expectations change from baseline, LS mean” value (healthy subjects; Psilocybin 25 mg, Day 7) was −0.0, the “SSR fulfilling expectations change from baseline, LS mean” value (healthy subjects; Psilocybin 25 mg, Day 84) was −0.0 and the “TEQ change from baseline, LS mean” value (healthy subjects; Psilocybin 25 mg, Day 84) was −0.0. The “Haloperidol-induced catalepsy (significantly reduced)” value (mice; 1 mg/kg) was 90 s, the “Start of positive effect on catalepsy after haloperidol” value (mice; 1 mg/kg, FIG. 18 (24 hours after administration)) was 135 min and the “Time after haloperidol injection of decrease in descent latency” value (mice; 1 mg/kg, one hour prior to the test) was 270 min. The “Time after haloperidol from which descent latency is significantly decreased” value (mice; 3 mg/kg, 1 week prior to the test) was ≥ 224 min, the “Haloperidol-induced catalepsy (significantly reduced)” value (mice; 3 mg/kg) was 60 s and the “Start of reduction in descent latency after haloperidol, lasting to 270 minutes” value (mice; 3 mg/kg, FIG. 18 (24 hours after administration)) was 45 min. The “Time after haloperidol injection from which descent latency is significantly decreased” value (mice; 3 mg/kg, one hour prior to the test) was ≥ 225 min, the “Haloperidol-induced catalepsy (significantly reduced)” value (mice; 10 mg/kg) was 75 s and the “Start of positive effect on catalepsy after haloperidol” value (mice; 10 mg/kg, FIG. 18 (24 hours after administration)) was 90 min. For the same molecule, the “Time after haloperidol injection from which descent latency is significantly decreased” value (mice; 10 mg/kg, one hour prior to the test) was ≥ 180 min.
